Several values for one entry are separate records, joined by “and”; a condition that tells them apart may be missing. Identical values can stand only once. Like-named read-outs stand apart in the source and are kept apart here.
What was measured:
[1] = test system: P. berghei ANKA GFP-Luc-SMcon sporozoites; test: P. berghei-luciferase liver stage bioluminescence assay (causal prophylactic mode) in HepG2-CD81 cells; type: cell-based, Plasmodium berghei
Method: (§1) Briefly, HepG2-CD81 cells were seeded into 1,536 well plates containing 50 nL of test and control compounds diluted into DMSO. […] Next, 2 μL of luciferin reagent (Promega BrightGlo) was added to each well and luciferase activity was detected using a Perkin Elmer Envision plate reader. […] In parallel, plates were processed without sporozoites for HepG2 toxicity measurements.
(§2) In continuation of the transmission blocking theme, it is important to establish activities against liver stage parasites. […] This assay uses ultra-high-throughput screening methods optimized for a 1536-well format and a HepG2 human hepatoma cell line. […] To establish selectivity of the compounds for the parasite in the liver stage of infection, cytotoxicity was determined by measuring bioluminescence from the reaction between free ATP of compound-treated, uninfected hepatocytes and a luciferase reporter system.

HepG2 cells = test: HepG2 cytotoxicity bioluminescence assay (CellTiterGlo, ATP); type: cell-based, human; settings: two biological replicates listed in one cell
Method: as §1, §2

[2] = as above; type: cell-based, human; settings: human, uninfected HepG2-CD81 cells
Method: as §1, §2

[3] = test system: P. falciparum NF54 late stage gametocytes (>90% stage IV and V); test: Gametocytocidal luciferase reporter assay, late stage, 72 h; type: cell-based, Plasmodium falciparum
Method: (§3) P. falciparum parasites (NF54, K1, and W2) were cultured in vitro in human erythrocytes (A^+ or O^+) under 90% N2, 5% CO2, and 5% O2 atmospheric conditions with supplemented RPMI 1640 media (Sigma Aldrich) containing Albumax II, as previously described (Verlinden et al., [2011]). This study was carried out according the guidelines set out by the Faculty of Health Sciences Ethical Committee, Ethical Clearance no. EC-120821/077. The protocol was approved by the Faculty of Health sciences ethical committee at the University of Pretoria. All subjects gave written informed consent in accordance with the Declaration of Helsinki. Parasite proliferation was monitored microscopically using Giemsa stained smears. Synchronized ring stage parasites (>95%) were obtained using a 5% D-sorbitol (Sigma Aldrich) treatment. […] Gametocyte cultures were kept stationary under 90% N2, 5% CO2, and 5% O2 atmospheric conditions at 37°C and treated with 50 mM N-acetyl-glucosamine (NAG) to eliminate residual invasion of asexual parasites.
(§4) Gametocytocidal activity was determined using the luciferase reporter line (Reader et al., [2015]) to derive dose responses with two-fold serial drug dilutions for 48 h against early stage gametocytes (day 5 post-induction population, >90% stage I–III) and 10-fold serial drug dilutions for 72 h against late stage gametocytes (day 10 post-induction population, >90% late stage IV–V) (2% gametocytemia, 2% hematocrit), at 37°C under 90% N2, 5% CO2, and 5% O2 atmospheric conditions.

[4] = Cytotoxicity, Cytoselect LDH cytotoxicity assay kit; type: cell-based; settings: human, HepG2 cells
Method: (§5) Cytotoxicity (EC50) was determined against Chinese hamster ovarian (CHO) using a 3-(4,5-dimethylthiazol-2-yl)-2,5-diphenyltetrazolium bromide (MTT) assay and hepatocellular carcinoma cells (HepG2) using the Cytoselect LDH cytotoxicity assay kit (Cell Biolabs).

P. falciparum W2 = test: Proliferative (SYBR Green I) assay, asexual parasites, 96 h; type: cell-based; settings: Plasmodium falciparum, ±SEM
Method: as §3
(§6) Working solutions of the derivatives were prepared from a 10 mM stock solution in 100% DMSO in supplemented RPMI 1640 media containing Albumax II with a final DMSO concentration of <0.1%, previously determined as being non-toxic to intraerythrocytic asexual parasites and gametocytes. Dose responses were assayed using a two-fold serial drug dilution on in vitro >95% ring stage intraerythrocytic P. falciparum parasites at 37°C under 90% N2, 5% CO2, and 5% O2 atmospheric conditions, detecting both parasite lactate dehydrogenase (pLDH) activity as a metabolic marker following a 48 h drug exposure (1.5–2% parasitemia and 2% hematocrit; Makler et al., [1993]) and SYBR Green I fluorescence as proliferative marker following a 96 h drug exposure (1% parasitemia and 1% hematocrit). […] Data analysis was performed using GraphPad Prism 7.

P. falciparum NF54 [5] = test: as above; type: cell-based; settings: Plasmodium falciparum, ±SEM
Method: as §3, §6

P. falciparum K1 = test: as above; type: cell-based; settings: Plasmodium falciparum, ±SEM
Method: as §3, §6

[6] = test system: P. falciparum NF54 early stage gametocytes (>90% stage I–III); test: Gametocytocidal luciferase reporter assay, early stage, 48 h; type: cell-based; settings: Plasmodium falciparum, NF54, 48 h, read-out: Early Stage (EG, Luc 48 h) IC50; >90% stage I–III gametocytes, ±SEM
Method: as §3, §4

[7] = test system: asexual P. falciparum NF54, Dd2, K1, W2; test: Asexual P. falciparum, metabolic (pLDH) and proliferative (SYBR Green I) platforms; type: cell-based; settings: Plasmodium falciparum; drug-sensitive and -resistant parasites, both assay platforms; read-out: IC50, asexual P. falciparum metabolic activity and proliferation
Method: Data analysis was performed using GraphPad Prism 7.
The in vitro activities of the new derivatives were determined against drug sensitive NF54 and multi-drug resistant Dd2, K1, and W2 intraerythrocytic asexual P. falciparum malaria parasite strains using both a metabolic (parasite LDH) and a proliferative (SYBR Green I fluorescence) assay readout (Table 1).

Cytotoxicity, MTT assay = type: cell-based; settings: Chinese hamster, CHO cells
Method: as §5

P. falciparum NF54 [8] = test: Metabolic (parasite LDH) assay, asexual ring stage parasites, 48 h; type: cell-based; settings: Plasmodium falciparum, pLDH, CQ-sensitive NF54
Method: as §3, §6

P. falciparum Dd2 = test: as above; type: cell-based; settings: Plasmodium falciparum, pLDH, Dd2 CQ, pyrimethamine resistant
Method: as §6

[9] = Plasmodium berghei, HepG2, 48 h, liver stage, HepG2 host cells, luciferase after 48 h, ±SD, read-out: P. berghei sporozoites IC50
[10] = Plasmodium falciparum, NF54, 72 h, read-out: Late Stage (LG, Luc 72 h) IC50, >90% stage IV and V gametocytes, ±SEM
[11] = read-out: Late Stage (LG, Luc 72 h) IC50, >90% stage IV and V gametocytes, ±SEM

## CO[C@H]1O[C@@H]2O[C@@]3(C)CC[C@H]4[C@H](C)CC[C@@H]([C@H]1C)[C@@]24OO3 [Artemether 3, artemether]
[1]; [9]
  IC50: > 10000 nM
[1]; Plasmodium berghei, Conc. 10 μM, read-out: P. berghei sporozoites Maximum inhibition %
  inhibition at 10 µM: 49.4%

## O=C1C(O)=C([C@H]2CC[C@H](c3ccc(Cl)cc3)CC2)C(=O)c2ccccc21 [Atovaquone]
HepG2 cells
  HepG2 Cytotoxicity Bioluminescence Assay: Maximum measured (%): 16.9% and 8.57%
  IC50: > 250 nM
[2]; two biological replicates listed in one cell
  IC50 at 72 h: > 250 nM
[2]; uninfected HepG2, ATP bioluminescence
  EC50 at 72 h: > 250 nM
[1]; Plasmodium berghei, 48 h, two biological replicates listed in one cell, read-out: P.berghei-Luciferase Liver Stage Bioluminescence Assay: Maximum measured (%)
  Emax: 92.9%
[1]; [9]
  IC50: 2.52 ± 0.997 nM
[1]; Plasmodium berghei, two biological replicates listed in one cell, read-out: P.berghei-Luciferase Liver Stage Bioluminescence Assay: IC50
  IC50: 3.23 nM
[1]; Plasmodium berghei, Conc. 0.5 μM, read-out: P. berghei sporozoites Maximum inhibition %
  inhibition at 0.5 µM: 94.8 ± 2.76%
[1]; two biological replicates listed in one cell, read-out: P.berghei-Luciferase Liver Stage Bioluminescence Assay: IC50
  IC50: 1.81 nM

## CCCCS(=O)(=O)N1CCN([C@@H]2O[C@@H]3O[C@@]4(C)CC[C@H]5[C@H](C)CC[C@@H]([C@H]2C)[C@@]35OO4)CC1 [Compound 13]
[3]; [10]
  IC50: 0.4 to 0.7 nM
[3]; [11]
  IC50: 0.5 ± 0.3 nM
[4]
  EC50: 2720 nM
P. falciparum W2
  IC50: 4.4 ± 1 nM
P. falciparum NF54 [5]
  IC50: 2.7 ± 0.6 nM
P. falciparum K1
  IC50: 3.1 ± 0.1 nM
[6]
  IC50: 21.5 ± 10.4 nM

## CCCCCCCCCCCCCCCCS(=O)(=O)N1CCN([C@@H]2O[C@@H]3O[C@@]4(C)CC[C@H]5[C@H](C)CC[C@@H]([C@H]2C)[C@@]35OO4)CC1 [Compound 14]
[7]
  IC50: 50 to 100 nM

## CC(=O)Nc1ccc(S(=O)(=O)N2CCN([C@@H]3O[C@@H]4O[C@@]5(C)CC[C@H]6[C@H](C)CC[C@@H]([C@H]3C)[C@@]46OO5)CC2)cc1 [Compound 15]
Cytotoxicity, MTT assay
  EC50: > 177000 nM
P. falciparum NF54 [8]
  IC50: 1.3 ± 0.5 nM
[4]
  EC50: 1950 nM
P. falciparum W2
  IC50: 5.4 ± 0.5 nM
P. falciparum NF54 [5]
  IC50: 2.7 ± 0.7 nM
P. falciparum K1
  IC50: 3.4 ± 0.3 nM
[6]
  IC50: 8 ± 2.3 nM
P. falciparum Dd2
  IC50: 3.54 ± 0.32 nM

## C[C@H]1[C@H](N2CCN(S(=O)(=O)c3cccc(C(F)(F)F)c3)CC2)O[C@@H]2O[C@@]3(C)CC[C@H]4[C@H](C)CC[C@@H]1[C@@]24OO3 [Compound 16]
[3]; [10]
  IC50: 0.4 to 0.7 nM
[3]; [11]
  IC50: 0.4 ± 0.3 nM
Cytotoxicity, MTT assay
  EC50: > 178000 nM
P. falciparum NF54 [8]
  IC50: 1.13 ± 0.12 nM
[4]
  EC50: 431 nM
P. falciparum W2
  IC50: 4.6 ± 0.2 nM
P. falciparum NF54 [5]
  IC50: 3.4 ± 0.6 nM
P. falciparum K1
  IC50: 5 nM
[6]
  IC50: 19.7 ± 9.9 nM
P. falciparum Dd2
  IC50: 7.46 ± 1.07 nM

## C[C@H]1[C@H](N2CCN(S(=O)(=O)c3cccc(F)c3)CC2)O[C@@H]2O[C@@]3(C)CC[C@H]4[C@H](C)CC[C@@H]1[C@@]24OO3 [Compound 17]
[3]; [10]
  IC50: 0.4 to 0.7 nM
[3]; [11]
  IC50: 0.6 ± 0.4 nM
Cytotoxicity, MTT assay
  EC50: > 196000 nM
P. falciparum NF54 [8]
  IC50: 2 ± 0.6 nM
[4]
  EC50: 637 nM
P. falciparum W2
  IC50: 4.6 ± 0.2 nM
P. falciparum NF54 [5]
  IC50: 3.1 ± 0.2 nM
P. falciparum K1
  IC50: 4.85 ± 1.1 nM
[6]
  IC50: 13.1 ± 7.2 nM
P. falciparum Dd2
  IC50: 6.2 ± 0.7 nM

## C[C@H]1[C@H](N2CCN(S(=O)(=O)c3ccc(C(F)(F)F)cc3)CC2)O[C@@H]2O[C@@]3(C)CC[C@H]4[C@H](C)CC[C@@H]1[C@@]24OO3 [Compound 18]
[3]; [10]
  IC50: 4.8 ± 4.2 nM
Cytotoxicity, MTT assay
  EC50: 154000 nM
P. falciparum NF54 [8]
  IC50: 15.3 ± 2 nM
[4]
  EC50: 217 nM
P. falciparum W2
  IC50: 23.8 ± 1.4 nM
P. falciparum NF54 [5]
  IC50: 13.9 ± 1.2 nM
P. falciparum K1
  IC50: 22 ± 2.7 nM
[6]
  IC50: 89.7 ± 28.8 nM
P. falciparum Dd2
  IC50: 74.3 ± 6.42 nM
[7]
  IC50: 15 to 74 nM
